From the RepoRT retention time repository (doi:10.1093/pcp/pcn183)
Structures can show the parent of a compound that is named as a salt.

Assay: RP, Waters ACQUITY UPLC BEH C18, 38 °C, 0.24 mL/min; A: water + 0.1% formic acid, pH 3; B: acetonitrile + 0.1% formic acid, pH 3; gradient (min/%B) 0/0 0.25/0 0.4/9 0.8/17 1.9/100 2.1/100 2.11/0 3/0
Conditions: stereoisomer not certain

In order of falling LC retention time:
1. COc1cc(CNC(=O)CCCCCCC(C)C)ccc1O [Dihydrocapsaicin]  2 min
2. CCCCCCCCCCCCCCCCC [Heptadecane]  1.81 min
3. C=CC(C)(O)CCC=C(C)CCC=C(C)C (stereo not drawn) [cis-Nerolidol]  1.81 min
4. CC1CCC2(NC1)OC1CC3C4CC=C5CC(O)CCC5(C)C4CCC3(C)C1C2C (stereo not drawn) [Solasodine]  1.72 min
5. COc1ccccc1C=CC(=O)O [2-Methoxycinnamic acid]  1.68 min
6. O=C(O)/C=C/c1ccccc1 [trans-Cinnamic acid]  1.64 min
7. NC(=O)CCCCC1CCSS1 (racemic) [DL-Thioctamide]  1.57 min
8. COc1ccc(C2CC(=O)c3c(O)cc(OC4OC(CO)C(O)C(O)C4OC4OC(C)C(O)C(O)C4O)cc3O2)cc1 (stereo not drawn) [Poncirin]  1.56 min
9. COc1cc(C=CC=O)ccc1O [4-Hydroxy-3-methoxycinnamaldehyde]  1.52 min
10. CC(=O)OCC1OC(Oc2c(-c3ccc(O)c(O)c3)oc3cc(O)cc(O)c3c2=O)C(O)C(O)C1O (stereo not drawn) [Quercetin-3-O-glucose-6''-acetate]  1.46 min
11. COc1cc(-c2oc3cc(O)cc(O)c3c(=O)c2OC2OC(CO)C(O)C(O)C2O)cc(OC)c1O (stereo not drawn) [syringetin-3-O-glucoside]  1.45 min
12. COc1cc(/C=C/C(=O)O)ccc1O [trans-4-Hydroxy-3-methoxycinnamic acid]  1.44 min
13. CS(=O)C=CCCN=C=S (stereo not drawn)  1.44 min
14. O=C(O)C(O)Cc1ccccc1 (racemic) [DL-3-Phenyllactic acid]  1.42 min
15. COc1cc(C=Cc2cc(O)cc(OC3OC(CO)C(O)C(O)C3O)c2)ccc1O (stereo not drawn) [E-4,5'-dihydroxy-3-methoxy-3'-glucopyranosylstilbene]  1.42 min
16. O=c1c(OC2OC(CO)C(O)C(O)C2O)c(-c2ccc(O)c(O)c2)oc2cc(O)cc(O)c12 (stereo not drawn) [Hyperoside]  1.4 min
17. COc1cc(-c2[o+]c3cc(O)cc(OC4OC(CO)C(O)C(O)C4O)c3cc2OC2OC(COC3OC(C)C(OC(=O)C=Cc4ccc(O)cc4)C(O)C3O)C(O)C(O)C2O)cc(O)c1O (stereo not drawn)  1.36 min
18. Oc1cc(O)c2cc(OC3OCC(O)C(O)C3O)c(-c3ccc(O)c(O)c3)[o+]c2c1 (stereo not drawn) [Cyanidin-3-O-alpha-arabinopyranoside]  1.23 min
19. COc1cc(-c2[o+]c3cc(O)cc(O)c3cc2OC2OC(CO)C(O)C(O)C2O)cc(O)c1O (stereo not drawn) [Petunidin-3-O-beta-glucopyranoside]  1.22 min
20. O=C(O)Cc1ccc(O)c(O)c1 [3,4-dihydroxyphenylacetic acid]  1.16 min
21. N[C@@H](Cc1c[nH]c2ccccc12)C(=O)O [L-Tryptophane]  1.16 min
22. N[C@H](CC(=O)O)Cc1ccccc1 [L-beta-Homophenylalanine hydrochloride]  1.16 min
23. CC1OC(OCC2OC(Oc3cc4c(O)cc(O)cc4[o+]c3-c3cc(O)c(O)c(O)c3)C(O)C(O)C2O)C(O)C(O)C1O (stereo not drawn)  1.15 min
24. CSCC1OC(n2cnc3c(N)ncnc32)C(O)C1O (stereo not drawn) [5'-Deoxy-5'-Methylthioadenosine]  1.14 min
25. CC(C)(COP(=O)(O)OP(=O)(O)OCC1OC(n2cnc3c(N)ncnc32)C(O)C1O)C(O)C(=O)NCCC(=O)NCCS (stereo not drawn) [3'-Dephosphocoenzyme A]  1.12 min
26. N[C@@H](Cc1ccccc1)C(=O)O [L-(-)-Phenylalanine]  1.09 min
27. NCCc1c[nH]c2ccc(O)cc12 [Serotonin hydrochloride]  1.08 min
28. O=C(O)C(O)c1cccc(O)c1 (stereo not drawn) [3-Hydroxymandelic acid]  1 min
29. Nc1ncnc2c1ncn2C1CC(O)C(COP(=O)(O)O)O1 (stereo not drawn) [2'-Deoxyadenosine-5'-monophosphate]  0.62 min
30. N[C@@H](Cc1ccc(O)cc1)C(=O)O [L-Tyrosine]  0.61 min
31. CC(C)CCC(=O)O [4-methyl valeric acid]  0.56 min
32. CCCCCCCCCCCCCCCC(O)C(CO)NC(=O)CCCCCCC [N-Octanoylsphinganine,D-erythro]  0.56 min
33. CC(C)C(N)CC(=O)O [L-beta-homovaline-HCl]  0.55 min
34. CC(O)(CC(=O)O)C(=O)O (single isomer, unassigned; (-)) [(-)-Citramalic acid]  0.51 min
35. O=C(O)CCC(=O)O [Succinic acid]  0.49 min
36. O=C(O)C=Cc1cnc[nH]1 [urocanic acid]  0.38 min
37. C=CCC(=NOS(=O)(=O)O)SC1OC(CO)C(O)C(O)C1O (stereo not drawn) [sinigrin]  0.38 min
38. Nc1ccn(C2OC(CO)C(OP(=O)(O)O)C2O)c(=O)n1 (stereo not drawn) [Cytidine-3'-monophosphate]  0.36 min
39. CC(=O)OC(CC(=O)O)C[N+](C)(C)C [O-Acety-L-carnitine hydrochloride]  0.33 min
40. O=c1cc[nH]c(=O)[nH]1 [Uracil]  0.31 min
41. CC(=O)NC(CC(=O)O)C(=O)O (racemic) [N-Acetyl-DL-aspartic acid]  0.31 min
42. CSCC[C@H](N)C(=O)O [L-Methionine]  0.31 min
43. NC(=NCCCC(N)C(=O)O)NC(CC(=O)O)C(=O)O (stereo not drawn) [Argininosuccinic acid disodium salt]  0.29 min
44. CN1C=CC=CC1=CN=O [Pyridine-2-aldoxime methochloride]  0.25 min
45. CC(=O)OCC[N+](C)(C)C [Acetylcholine chloride]  0.24 min
46. Nc1ccn(C2OC(COP(=O)(O)O)C(O)C2O)c(=O)n1 (stereo not drawn) [Cytidine-5'-monophosphate monohydrate]  0.24 min
47. Oc1cccnc1 [3-Hydroxypyridine]  0.24 min
48. OCC1OC(OC2(CO)OC(CO)C(O)C2O)C(O)C(O)C1O (stereo not drawn) [Sucrose]  0.22 min
49. OCC1OC(OC2C(CO)OC(OC3C(CO)OC(O)C(O)C3O)C(O)C2O)C(O)C(O)C1O (stereo not drawn) [Maltotriose hydrate]  0.22 min
50. O=C1CCNC(=O)N1 [5,6-Dihydrouracil]  0.2 min
51. CS(=O)(=O)CCC(N)C(=O)O [L-Methionine sulfone]  0.18 min
52. CNC(C)C(=O)O (racemic) [N-Methyl-DL-Alanine]  0.18 min
53. NC(CSS(=O)(=O)O)C(=O)O (stereo not drawn) [S-Sulfocysteine]  0.17 min
54. C[C@@H](O)[C@H](N)C(=O)O [L-Threonine]  0.17 min
55. NOCC(=O)O [Aminooxyacetic acid Hemihydrochloride]  0.17 min
56. C[N+](C)(C)CCO [Choline chloride]  0.17 min
57. NC(CO)CC(=O)O [L-beta-homoserine [(R)-3-Amino-4-hydroxy-butyric acid (+)]]  0.16 min
58. CNCC(=O)O [Sarcosine]  0.16 min
59. NCCS(=O)(=O)O [Taurine]  0.16 min
60. Cn1cncc1C[C@H](N)C(=O)O [3-Methyl-L-histidine]  0.15 min
61. NCCCC[C@H](N)C(=O)O [L-(+)-Lysine]  0.15 min
62. N[C@@H](Cc1cnc[nH]1)C(=O)O [L-Histidine]  0.15 min
63. N[C@H]1C(O)O[C@H](CO)[C@@H](O)[C@@H]1O (stereo partly drawn) [D-(+)-Glucosamine hydrochloride]  0.15 min
64. NCCCNCCCCNCCCN [Spermine]  0.14 min
65. N[C@H](CO)Cc1cnc[nH]1 [L-Histidinol dihydrochloride]  0.14 min
66. NCCCCCN [Cadaverine]  0.14 min
67. NCCC[C@H](N)C(=O)O [L-Ornithine monohydrochloride]  0.14 min
68. CC(=O)NCCCNCCCCNCCCN [N1-Acetylspermine Trihydrochloride]  0.14 min
